The results in this text go back to patent US20120328569A1, “INHIBITORS OF HEPATITIS C VIRUS NS5B POLYMERASE” (priority 2010, published 2012).

The assay concerns HCV genotype 1b replicon. The experiment in a line: HCV replicon assay, cell ELISA with antibody to replicon-encoded NS3/4A (genotype 1b replicon). The format is cell-based, hepatitis C virus. To be noted: Hepatitis C virus, 96 h, read-out: Replicon 1b IC50 (nM), HCV genotype 1b replicon cells, 96 hours incubation, NS3/4A ELISA readout. In outline:
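An ELISA on lysed cells, using an antibody against NS3/4A protease, served as the proxy for replicon RNA. Cells had first been exposed for 96 h to serially diluted compound in G418-free conditions. Percent of DMSO control was fitted with a four-parameter function to give IC50.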
For the molecule `CONC(=O)c1c(-c2ccc(F)cc2)oc2cc(N(C)S(C)(=O)=O)c(-c3cccc(C)c3)cc12` [Example 92, 2-(4-fluorophenyl)-N-methoxy-6-[methyl (methylsulfonyl)amino]-5-(3-methylphenyl)-1-benzofuran-3-carboxamide], the IC50 stood at 252 nM.
For `CONC(=O)c1c(-c2ccc(F)cc2)oc2cc(N(C)S(C)(=O)=O)c(-c3ccc(C)cc3)cc12` [Example 93, 2-(4-fluorophenyl)-N-methoxy-6-[methyl (methylsulfonyl)amino]-5-(4-methylphenyl)-1-benzofuran-3-carboxamide] the value was 54 nM.
As for `CONC(=O)c1c(-c2ccc(F)cc2)oc2cc(N(C)S(C)(=O)=O)c(-c3cccc(C#N)c3)cc12` [Example 94, 5-(3-cyanophenyl)-2-(4-fluorophenyl)-N-methoxy-6-[methyl (methylsulfonyl)amino]-1-benzofuran-3-carboxamide], the IC50 was found to be 450 nM.
For `CONC(=O)c1c(-c2ccc(F)cc2)oc2cc(N(C)S(C)(=O)=O)c(-c3cccc(F)c3)cc12` [Example 95, 5-(3-fluorophenyl)-2-(4-fluorophenyl)-N-methoxy-6-[methyl (methylsulfonyl)amino]-1-benzofuran-3-carboxamide] the value was 130 nM.
For `CONC(=O)c1c(-c2ccc(F)cc2)oc2cc(N(C)S(C)(=O)=O)c(-c3ccc(F)cc3)cc12` [Example 96, 2,5-bis(4-fluorophenyl)-N-methoxy-6-[methyl (methylsulfonyl)amino]-1-benzofuran-3-carboxamide], the IC50 stood at 1230 nM.
The result for `CONC(=O)c1c(-c2ccc(F)cc2)oc2cc(N(C)S(C)(=O)=O)c(-c3cccc(OC)c3)cc12` [Example 97, 2-(4-fluorophenyl)-N-methoxy-5-(3-methoxyphenyl)-6-[methyl (methylsulfonyl)amino]-1-benzofuran-3-carboxamide] reads 126 nM; that for `CONC(=O)c1c(-c2ccc(F)cc2)oc2cc(N(C)S(C)(=O)=O)c(-c3ccc(OC)cc3)cc12` [Example 98, 2-(4-fluorophenyl)-N-methoxy-5-(4-methoxyphenyl)-6-[methyl (methylsulfonyl)amino]-1-benzofuran-3-carboxamide], 72 nM; that for `CONC(=O)c1cccc(-c2cc3c(C(=O)NOC)c(-c4ccc(F)cc4)oc3cc2N(C)S(C)(=O)=O)c1` [Example 99, 2-(4-fluorophenyl)-N-methoxy-5-[3-(methoxycarbamoyl)phenyl]-6-[methyl(methylsulfonyl)amino]-1-benzofuran-3-carboxamide], 623 nM.
For `CNC(=O)c1cccc(-c2cc3c(C(=O)NC)c(-c4ccc(F)cc4)oc3cc2N(C)S(C)(=O)=O)c1` [Example 100, 2-(4-fluorophenyl)-N-methyl-5-[3-(methylcarbamoyl)phenyl]-6-[methyl(methylsulfonyl)amino]-1-benzofuran-3-carboxamide] the value was 45 nM; for `CNC(=O)c1c(-c2ccc(F)cc2)oc2cc(N(C)S(C)(=O)=O)c(-c3cccc(CN)c3)cc12` [Example 101, 5-[3-(aminomethyl)phenyl]-2-(4-fluorophenyl)-N-methyl-6-[methyl(methylsulfonyl)amino]-1-benzofuran-3-carboxamide], 505 nM; for `CNC(=O)c1c(-c2ccc(F)cc2)oc2cc(N(C)S(C)(=O)=O)c(-c3cccc(CNS(C)(=O)=O)c3)cc12` [Example 102, 2-(4-fluorophenyl)-N-methyl-6-[methyl(methylsulfonyl)amino]-5-(3-{[(methylsulfonyl)amino]methyl}phenyl)-1-benzofuran-3-carboxamide], 7 nM.
The result for `CNC(=O)c1c(-c2ccc(F)cc2)oc2cc(N(C)S(C)(=O)=O)c(-c3cccc(CNS(=O)(=O)c4ccccc4)c3)cc12` [Example 103, 2-(4-fluorophenyl)-N-methyl-6-[methyl(methylsulfonyl)amino]-5-(3-{[(phenylsulfonyl)amino]methyl}phenyl)-1-benzofuran-3-carboxamide] reads below 8 nM; that for `CNC(=O)c1c(-c2ccc(F)cc2)oc2cc(N(C)S(C)(=O)=O)c(-c3ccc(CNS(C)(=O)=O)cc3)cc12` [Example 104], 164 nM; that for `CNC(=O)c1c(-c2ccc(F)cc2)oc2cc(N(C)S(C)(=O)=O)c(-c3ccc(CNS(=O)(=O)c4ccccc4)cc3)cc12` [Example 105, 2-(4-fluorophenyl)-N-methyl-6-[methyl (methylsulfonyl)amino]-5-(4-{[(phenylsulfonyl)amino]methyl}phenyl)-1-benzofuran-3-carboxamide], 57 nM.
As to `CNC(=O)c1c(-c2ccc(F)cc2)oc2cc(N(C)S(C)(=O)=O)c(-c3ccc(C(F)(F)F)cc3)cc12` [Example 108, 2-(4-fluorophenyl)-N-methyl-6-[methyl(methylsulfonyl)amino]-5-[4-(trifluoromethyl)phenyl]-1-benzofuran-3-carboxamide], the IC50 was determined as 53 nM.
The result for `CNC(=O)c1c(-c2ccc(F)cc2)oc2cc(N(C)S(C)(=O)=O)c(-c3ccc(OC(C)C)cc3)cc12` [Example 109, 2-(4-fluorophenyl)-N-methyl-6-[methyl(methylsulfonyl)amino]-5-[4-(propan-2-yloxy)phenyl]-1-benzofuran-3-carboxamide] reads 216 nM; that for `CCc1ccc(-c2cc3c(C(=O)NC)c(-c4ccc(F)cc4)oc3cc2N(C)S(C)(=O)=O)cc1` [Example 110, 5-(4-ethylphenyl)-2-(4-fluorophenyl)-N-methyl-6-[methyl(methylsulfonyl)amino]-1-benzofuran-3-carboxamide], 90 nM.
For `CNC(=O)c1c(-c2ccc(F)cc2)oc2cc(N(C)S(C)(=O)=O)c(-c3cc(F)cc(F)c3)cc12` [Example 111, 5-(3,5-difluorophenyl)-2-(4-fluorophenyl)-N-methyl-6-[methyl(methylsulfonyl)amino]-1-benzofuran-3-carboxamide] the value was 40 nM.
The result for `CNC(=O)c1c(-c2ccc(F)cc2)oc2cc(N(C)S(C)(=O)=O)c(-c3ccc(-c4ccccc4)cc3)cc12` [Example 112, 5-(biphenyl-4-yl)-2-(4-fluorophenyl)-N-methyl-6-[methyl(methylsulfonyl)amino]-1-benzofuran-3-carboxamide] reads below 8 nM; that for `CNC(=O)c1c(-c2ccc(F)cc2)oc2cc(N(C)S(C)(=O)=O)c(-c3ccc(O)cc3)cc12` [Example 113, 2-(4-fluorophenyl)-5-(4-hydroxyphenyl)-N-methyl-6-[methyl(methylsulfonyl)amino]-1-benzofuran-3-carboxamide], 74 nM; that for `CNC(=O)c1c(-c2ccc(F)cc2)oc2cc(N(CCNCc3ccccc3)S(C)(=O)=O)c(-c3ccccc3)cc12` [Example 123, 6-{[2-(benzylamino)ethyl](methylsulfonyl)amino}-2-(4-fluorophenyl)-N-methyl-5-phenyl-1-benzofuran-3-carboxamide], 111 nM.
For `CNC(=O)c1c(-c2ccc(F)cc2)oc2cc(N(CCN(C)Cc3ccccc3)S(C)(=O)=O)c(-c3ccccc3)cc12` [Example 124, 6-[{2-[benzyl(methyl)amino]ethyl} (methylsulfonyl)amino]-2-(4-fluorophenyl)-N-methyl-5-phenyl-1-benzofuran-3-carboxamide], the IC50 is above 10000 nM.
For `CNC(=O)c1c(-c2ccc(F)cc2)oc2cc(N(C)S(C)(=O)=O)c(-c3cccc(-c4nc5ccccc5s4)c3)cc12` [Example 135, 5-(3-(benzo[d]thiazol-2-yl)phenyl)-2-(4-fluorophenyl)-N-methyl-6-(N-methylmethylsulfonamido)-1-benzofuran-3-carboxamide] the value was 4 nM; for `CNC(=O)c1c(-c2ccc(F)cc2)oc2cc(N(C)S(C)(=O)=O)c(-c3cccc(-c4cnc(-c5ccccc5)s4)c3)cc12` [Example 136, 2-(4-fluorophenyl)-N-methyl-6-[methyl (methylsulfonyl)amino]-5-[3-(2-phenyl-1,3-thiazol-5-yl)phenyl]-1-benzofuran-3-carboxamide], 16 nM; for `CNC(=O)c1c(-c2ccc(F)cc2)oc2cc(N(C)S(C)(=O)=O)c(-c3cccc(-c4nnc(-c5ccccc5)o4)c3)cc12` [Example 137, 2-(4-fluorophenyl)-N-methyl-6-[methyl (methylsulfonyl)amino]-5-[3-(5-phenyl-1,3,4-oxadiazol-2-yl)phenyl]-1-benzofuran-3-carboxamide], 6 nM.
In the case of `CNC(=O)c1c(-c2ccc(F)cc2)oc2cc(N(C)S(C)(=O)=O)c(-c3cccc(-c4noc5ccccc45)c3)cc12` [Example 138, 5-[3-(1,2-benzisoxazol-3-yl)phenyl]-2-(4-fluorophenyl)-N-methyl-6-[methyl (methylsulfonyl)amino]-1-benzofuran-3-carboxamide], the IC50 turned out to be 9 nM.
Turning to `CNC(=O)c1c(-c2ccc(F)cc2)oc2cc(N(C)S(C)(=O)=O)c(-c3cccc(-c4nnn(Cc5ccccc5)n4)c3)cc12` [Example 139, 5-[3-(2-benzyl-2H-tetrazol-5-yl)phenyl]-2-(4-fluorophenyl)-N-methyl-6-[methyl (methylsulfonyl)amino]-1-benzofuran-3-carboxamide], the IC50 came to 5 nM.
Regarding `CNC(=O)c1c(-c2ccc(F)cc2)oc2cc(N(C)S(C)(=O)=O)c(-c3cccc(-c4nnn(CC(=O)O)n4)c3)cc12` [Example 140, [5-(3-{2-(4-fluorophenyl)-3-(methylcarbamoyl)-6-[methyl (methylsulfonyl)amino]-1-benzofuran-5-yl}phenyl)-2H-tetrazol-2-yl]acetic acid], the IC50 was determined as 1190 nM.
For `CNC(=O)c1c(-c2ccc(F)cc2)oc2cc(N(C)S(C)(=O)=O)c(-c3cccc(-c4cn5ccccc5n4)c3)cc12` [Example 141, 2-(4-fluorophenyl)-5-[3-(imidazo[1,2-a]pyridin-2-yl)phenyl]-N-methyl-6-[methyl (methylsulfonyl)amino]-1-benzofuran-3-carboxamide] the value was 3 nM.
